Results published in patent US20220002280A1, “COMPOUNDS AND METHODS OF USE” (Ferro Therapeutics, Inc., priority 2019, published 2022).

What was measured:
786-O [1] = assay: GPX4 inhibition assay: Ferrostatin rescue, 786-O; type: cell-based; conditions: Homo sapiens, 786-0, 786-O cells
Description: (§1) Cells (SJSA-1, 786-0 and/or A431) were seeded (5000 cells/100 μL/well) in 96-well tissue culture plate and incubated at 37° C./5% CO2 for 16-24 hours. The cells were then treated with compounds (25 μL of 5×). The compound concentrations were 10-0.0005 μM prepared in 3-fold serial dilutions with final DMSO concentration of 1%. The plates were then incubated for 24h at 37° C./5% CO2 in a moist environment. Then Alamar Blue™ reagent (final concentration 1×-12.5 μL) was added to each well and incubated for 1.5 hours at 37° C./5% CO2. The plates were read on fluorescence reader at 540 nm excitation and 590 nm emission wavelengths. The IC50 values were subsequently determined using a sigmoidal dose-response curve (variable slope) in GraphPad Prism® 5 software.
(§2) Studies have shown that lipophilic antioxidants, such as Ferrostatin, can rescue cells from GPX4 inhibition-induced ferroptosis. For instance, mesenchymal state GPX4-knockout cells can survive in the presence of Ferrostatin, however, when the supply of Ferrostatin is terminated, these cells undergo ferroptosis (see, e.g., Viswanathan et al., Nature 547:453-7, 2017). […] Accordingly, the ability of a molecule to induce ferroptotic cancer cell death, and that such ability is admonished by the addition of Ferrostatin, is clear indication that the molecule is an GPX4 inhibitor.

SJSA-1 [2] = assay: GPX4 inhibition assay: Ferrostatin rescue, SJSA-1; type: cell-based; conditions: Homo sapiens, SJSA-1 cells
Description: as §1, §2

A431 = assay: Cell proliferation (Alamar Blue) assay, A431; type: cell-based, human; conditions: Homo sapiens, A-431, A431 cells, 24 h treatment
Description: (§3) A cell viability assay was performed to assess the potency of the compounds in human cancer cell lines 786-0 (renal cell carcinoma), SJSA-1 (osteosarcoma), and/or A431 (epidermoid carcinoma). Additional cell lines, such as pancreatic cancer cell lines (e.g., Panc 02.13, BxPC-3, Panc 12, Panc 02.03, Panc 6.03, PSN-1, HPAC, and Capan-1), prostate cancer cell lines (e.g., PC-3, DU145, 22Rv1, NCI-H660, BPH1, LNCaP, BM-1604, and MDA PCa 2b), etc., can be tested in a similar method.
as §1

786-O [3] = assay: Cell proliferation (Alamar Blue) assay, 786-O; type: cell-based, human; conditions: 786-O cells, 24 h treatment
Description: as §3, §1

SJSA-1 [4] = assay: Cell proliferation (Alamar Blue) assay, SJSA-1; type: cell-based, human; conditions: Homo sapiens, SJSA-1 cells, 24 h treatment
Description: as §3, §1

[5] = Mouse IV pharmacokinetics; type: in vivo, Balb/c mice; conditions: male, Balb/c, plasma; Mouse IV-PK (5 mg/kg)
Text: Institutional Animal Ethical Committee (IAEC) of Jubilant Biosys (IAEC/JDC/2019/188R (for Mice) and IAEC/JDC/2019/189R (for Rat) nominated by CPCSEA (Committee for the Purpose of Control and Supervision of Experiments on Animals) approved the mice and rat pharmacokinetic experiments. Male Balb/c mice (˜6-8 weeks old with body weight range of 22-25 g) and male SD rats (6-8 weeks old with body weight range of 200-250 g) were procured from Vivo Biotech, Hyderabad, India. Animals were quarantined in Jubilant Biosys Animal House for a period of 7 days with a 12:12 h light: dark cycles, and prior to the study the animals were stratified as per body weight.
A) Procedure for Mice: Intravenous, oral and intraperitoneal pharmacokinetics study was done at doses of 5, 20 and 10 mg/kg respectively at dose volume of 10 mL/Kg for PO and IP while 5 mL/kg for IV route. Sparse sampling was done and at each time point three mice were used for blood sampling (˜100 μL) were collected from retro-orbital plexus at 0.083 (Only for IV), 0.25, 0.5, 1, 2, 4, 8, 10 (only for PO) and 24 h. Blood samples collected in tubes containing K2.EDTA as anticoagulant and centrifuged for 5 min at 10,000 rpm in a refrigerated centrifuge (Biofuge, Heraeus, Germany) maintained at 4° C. for plasma separation.
Group I (IV) received test compound intravenously by tail vein at 5 mg/Kg in solution formulation prepared using 30% Kolliphore EL in WFI; dose volume: 5 mL/Kg; strength: 1 mg/mL.
Blood concentration-time data of test compound was analyzed by non-compartmental method using Phoenix WinNonlin Version 8.1.

A549 = assay: Counter-screen in A549 (CellTiter Glo); type: cell-based, human; conditions: Homo sapiens, A549 cells, 96 hours
Description: Selected compounds were also assayed (counter-screened) in a human lung cancer cell line, A549, a less sensitive cell line to GPX4 inhibitors, as a control to assess differential activity. Cells at a density of 800-2,000 cells/well were seeded in 96-well plates and incubated at 37° C. overnight. A series of nine different concentrations of compound stocks (500×) were created by 3-fold serial dilution in DMSO. These compounds were further diluted in culture media and then added to cells so that the final DMSO concentration was equal to 0.25% or less. After 96 hours of incubation, 50 μL of CellTiter Glo reagent (Promega) was added to each well and luminescence was measured after 10 minutes using EnVision (PerkinElmer). RSL3 (a prototype GPX4 inhibitor, also known as RSL-3) was used as a reference compound titrated from top concentration of up to 30 μM. All compounds were tested initially from 30 µM as the top concentration in duplicates (range of 4.6 nM-30 μM). […] Luminescence from cells treated with DMSO alone was set as Max and % of inhibition was calculated as follows: Inhibition %=(Max-Sample value)/Max*100. Data was analyzed using XL-fit software (ID Business Solutions Ltd.). IC50, relative IC50, or % of top inhibition was calculated.

KP4 = assay: Cell viability in KP4 (Table 4); type: cell-based; conditions: Homo sapiens, KP-4; KP4 cells
[6] = 2 μM Ferrostatin, read-out: 786-O (IC50, μM) 2 μM Ferrostatin
[7] = 2 μM Ferrostatin, read-out: SJSA-1 (IC50, μM) 2 μM Ferrostatin
[8] = without Ferrostatin, read-out: 786-O (IC50, μM) Without Ferrostatin
[9] = without Ferrostatin, read-out: SJSA-1 (IC50, μM) Without Ferrostatin

Row | Structure (SMILES) | IC50 (A431) | IC50 (786-O [3]; Homo sapiens, 786-0, 24 h) | IC50 (SJSA-1 [4]) | IC50 (A549) | other results
1 | COc1ccc2c(c1)C[C@H](C)N(C(=O)CCl)[C@H]2c1ccc(C(=O)NC2CC2)cc1 [Compound 5, 4-((1S,3S)-2-(2-chloroacetyl)-6-methoxy-3-methyl-1,2,3,4-tetrahydroisoquinolin-1-yl)-N-cyclopropylbenzamide] |  |  |  |  | IC50 (786-O [1]; [6]): > 10 µM; IC50 (SJSA-1 [2]; [7]): > 10 µM
2 | COc1ccc2c(c1)C[C@H](C)N(C(=O)CCl)[C@H]2c1ccc(F)cc1 [Compound 8] | 7.9 µM | 0.181 µM | 0.183 µM |  | IC50 (786-O [1]; [6]): > 10 µM; IC50 (786-O [1]; [8]): 0.181 µM; IC50 (SJSA-1 [2]; [7]): > 10 µM; IC50 (SJSA-1 [2]; [9]): 0.183 µM
3 | C#CC(=O)N1[C@@H](c2ccc(C(=O)NC3CC3)cc2)c2ccc(OC)cc2C[C@@H]1C [Compound 4, N-cyclopropyl-4-((1S,3S)-6-methoxy-3-methyl-2-propioloyl-1,2,3,4-tetrahydroisoquinolin-1-yl)benzamide] |  |  |  |  | IC50 (786-O [1]; [6]): 5.73 µM; IC50 (SJSA-1 [2]; [7]): 3.56 µM
4 | C#CC(=O)N1[C@@H](CCCC)Cc2cc(OC)ccc2[C@@H]1c1ccc(F)cc1 [Compound 12, 1-((1S,3S)-3-butyl-1-(4-fluorophenyl)-6-methoxy-3,4-dihydroisoquinolin-2(1H)-yl)prop-2-yn-1-one] | 3.5 µM | 0.014 µM | 0.025 µM |  | AUC [5]: 181 ng·h/mL; Cmax [5]: 882 ng/mL; Vd [5]: 19.5 L/kg; clearance [5]: 454 mL/min/kg; half-life [5]: 30 min
5 | COc1ccc2c(c1)C[C@H](C)N(C(=O)CCl)[C@@H]2c1ccc(N2CCOCC2)cc1 [Compound 46] |  |  | 2.56 µM | 3.83 µM | 
6 | COC(=O)c1ccc([C@@H]2c3ccc(OC)cc3C[C@H](C(=O)OC)N2C(=O)CCl)cc1 [Compound 41] |  |  |  | 1.31 µM | IC50 (KP4): 0.042 µM
7 | COc1cc2c(cc1OC)[C@@H](c1ccc(N3CCOCC3)cc1)N(C(=O)CCl)[C@@H](C)C2 [Compound 45] |  | 5.89 µM | > 3 µM | 4.74 µM | 
8 | C#CC(=O)N1[C@@H](c2ccc(F)cc2)c2ccc(OC)cc2C[C@@H]1C [Compound 9] | 4.9 µM | 0.223 µM | 0.436 µM |  | IC50 (786-O [1]; [6]): > 10 µM; IC50 (786-O [1]; [8]): 0.223 µM; IC50 (SJSA-1 [2]; [9]): 0.436 µM
9 | COc1ccc2c(c1)C[C@H](C)N(C(=O)CCl)[C@H]2c1ccc(N2CCOCC2)cc1 [Compound 47] |  |  | 0.329 µM | 6.58 µM | IC50 (786-O [3]): 0.259 µM
10 | COc1cc2c(cc1OC)[C@H](c1ccc(N3CCOCC3)cc1)N(C(=O)CCl)[C@@H](C)C2 [Compound 44] |  | 0.592 µM | 0.599 µM | 6.58 µM | 
11 | COC(=O)c1ccc([C@@H]2c3sccc3C[C@H](C(=O)OC)N2C(=O)CCl)cc1 [Compound 43] |  |  |  | 10.3 µM | IC50 (KP4): 0.525 µM
12 | COC(=O)c1ccc([C@H]2c3sccc3C[C@H](C(=O)OC)N2C(=O)CCl)cc1 [Compound 42] |  |  |  | 5.05 µM | IC50 (KP4): 0.0618 µM
13 | CCCC[C@H]1Cc2cc(OC)ccc2[C@H](c2ccc(F)cc2)N1C(=O)CCl [Compound 11, 1-((1S,3S)-3-butyl-1-(4-fluorophenyl)-6-methoxy-3,4-dihydroisoquinolin-2(1H)-yl)-2-chloroethan-1-one] | > 10 µM | 0.016 µM | 0.018 µM |  | 
14 | CCCC[C@H]1Cc2cc(OC)ccc2[C@H](c2ccc(C(=O)NC3CCC3)cc2)N1C(=O)CCl [Compound 13, 4-((1S,3S)-3-butyl-2-(2-chloroacetyl)-6-methoxy-1,2,3,4-tetrahydroisoquinolin-1-yl)-N-cyclobutylbenzamide] | 3.6 µM | 0.002 µM | 0.005 µM |  | 
15 | C#CC(=O)N1[C@H](c2ccc(F)cc2)c2ccc(OC)cc2C[C@@H]1C [Compound 10] | 8.6 µM | 0.164 µM | 0.278 µM |  | 
16 | C#CC(=O)N1[C@@H](CCCC)Cc2cc(OC)ccc2[C@@H]1c1ccc(-c2nc(C)no2)cc1 [Compound 55, 1-((1S,3S)-3-butyl-6-methoxy-1-(4-(3-methyl-1,2,4-oxadiazol-5-yl)phenyl)-3,4-dihydroisoquinolin-2(1H)-yl)prop-2-yn-1-one] | 2.3 µM | 0.027 µM | 0.032 µM |  | 
17 | C#CC(=O)N1[C@@H](CCCC)Cc2cc(OC)ccc2[C@@H]1c1ccc(CNC23CC(C2)C3)cc1 [Compound 100] | 4.06 µM | 0.013 µM | 0.021 µM |  | 
18 | C#CC(=O)N1[C@@H](CCCC)Cc2cc(OC)ccc2[C@@H]1c1ccc(C(=O)NCCOC)cc1 [Compound 14, 4-((1S,3S)-3-butyl-6-methoxy-2-propioloyl-1,2,3,4-tetrahydroisoquinolin-1-yl)-N-(2 methoxyethyl)benzamide] | 7.6 µM | 0.024 µM | 0.07 µM |  | 
19 | C#CC(=O)N1[C@@H](CCCC)Cc2cc(OC)ccc2[C@@H]1c1ccn(C)n1 [Compound 50, 1-[(1R,3S)-3-butyl-6-methoxy-1-(1-methyl-1H-pyrazol-3-yl)-1,2,3,4-tetrahydroisoquinolin-2-yl]prop-2-yn-1-one] | > 10 µM | 0.065 µM | 0.101 µM |  | 
